Test results from US7122651B1, “Nucleic acid molecules encoding opioid growth factor receptors” (priority 1998, dated 2006).

Assays:
[1] = test system: IEC-6 rat small intestine epithelial cell line; experiment: Cell number in IEC-6 cultures (trypan blue, hemacytometer); assay type: cell-based; conditions: 10^−6 M, 48 hr of exposure, IEC-6 cells
Description: FIG. 6 depicts histogram of cell number in cultures of IEC-6 rat intestinal epithelial cells treated for 48 hr with either sterile water (CO), 10^−6 M NTX, 10^−6 M 23-mer S-ODN (antisense), or scrambled oligoprobe (scrambled). Cells (5×10^3) were plated, and compounds and fresh media were added 24 hr and 48 hr later. After 72 hr in culture, cells were trypsinized, stained with trypan blue, and counted with a hemacytometer.
The IEC-6 rat small intestine epithelial cell line (American Type Tissue Culture Collection, Manassas, Va.) were grown in Dulbecco's medium supplemented with 10% fetal calf serum. For experiments, 5×10^3 cells/well in a 24-well plate were seeded and, 24 hr later, 10^−6 M concentrations of the antisense or the scrambled S-ODN were added. Some wells were exposed to 10^−6 NTX or an equivalent volume of sterile water. Media, S-ODNs, or drugs were changed daily. After 72 hr in culture, cells were trypsinized, stained with trypan blue, and counted with a hemacytometer; 3 wells/treatment group were assessed. The data were evaluated with ANOVA, and subsequent comparisons were made with the Newman-Keuls tests.

[2] = test system: SK-N-AS human neuroblastoma cell line; experiment: Cell number in SK-N-AS cultures (trypan blue, hemacytometer); assay type: cell-based; conditions: 10^−6 M, SK-N-AS cells
Description: FIG. 10 depicts histogram of cell number in cultures of SK-N-AS human neuroblastoma cells treated for 48 hr with either sterile water (CO), 10^−6 M NTX, 10^−6 M S-ODN, or scrambled oligonucleotide. Cells (6×10^3) were plated and compounds and fresh media added 24 hr and 48 hr later. After 72 hr in culture, cells were trypsinized, stained with trypan blue, and counted with a hemacytometer.
To study the function of the isolated cDNA with respect to regulation of cell growth, a 23-mer antisense S-ODN (nuclease-resistant phosphorothioate; Oligo, Etc., Bethel, Me.) targeted against a sequence containing the translation initiation site of the OGF binding protein was designed: 5′-[…]-3′ (antisense, SEQ ID NO: 17). A scrambled (control) S-ODN was also designed: 5′-[…]-3′ (SEQ ID NO: 18).
The SK-N-AS human neuroblastoma cell line (American Type Tissue Culture Collection, Manassas, Va.) was grown in Dulbecco's medium supplemented with 10% fetal calf serum. For experimentation, 6×10^3 cells/well in a 24-well plate were seeded and, 24 hr later, 10^−6 M concentrations of the antisense or the scrambled S-ODN was added. […] After 72 hr in culture, cells were trypsinized, stained with trypan blue, and counted with a hemacytometer. Data from the antisense experiments were evaluated with ANOVA, and subsequent comparisons made with the Newman-Keuls tests.

[3] = target: T1, nuclear homogenates of human pancreatic tumor cells (PANC-1) (Homo sapiens, UniProt Q9NZT2); experiment: Competition for binding of [^3H]-[Met^5]-enkephalin in PANC-1 nuclear homogenates; conditions: for competition for [^3H][Met^5]-enkephalin binding: 1 or 2 nM radioligand
T1 construct: host or cells: PANC-1; nuclear (P1) homogenates, and P2, P3 and S3 fractions in the fractionation study
T1 sequence (Q9NZT2 1-677): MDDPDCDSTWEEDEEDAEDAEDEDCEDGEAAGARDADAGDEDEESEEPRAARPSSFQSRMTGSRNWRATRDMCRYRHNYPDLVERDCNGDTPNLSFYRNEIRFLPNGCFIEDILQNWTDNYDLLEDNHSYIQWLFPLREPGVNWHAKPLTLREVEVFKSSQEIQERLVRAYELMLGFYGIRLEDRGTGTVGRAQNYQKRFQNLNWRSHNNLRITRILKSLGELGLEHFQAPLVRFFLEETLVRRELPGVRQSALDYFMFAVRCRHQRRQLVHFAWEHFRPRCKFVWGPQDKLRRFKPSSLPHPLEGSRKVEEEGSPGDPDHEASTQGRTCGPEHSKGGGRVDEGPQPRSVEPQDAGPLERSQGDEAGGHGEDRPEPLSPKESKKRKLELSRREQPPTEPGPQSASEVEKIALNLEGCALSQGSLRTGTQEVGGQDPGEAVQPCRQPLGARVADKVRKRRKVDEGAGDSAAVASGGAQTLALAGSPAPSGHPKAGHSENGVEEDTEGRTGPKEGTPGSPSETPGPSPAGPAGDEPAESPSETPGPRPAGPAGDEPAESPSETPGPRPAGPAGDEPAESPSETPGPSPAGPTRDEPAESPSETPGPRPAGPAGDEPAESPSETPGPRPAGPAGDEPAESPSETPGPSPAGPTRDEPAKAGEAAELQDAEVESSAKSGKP
Description: Each concentration was run in triplicate and every compound was tested twice.
(§1) Analysis and statistics. Receptor binding data were analyzed with either the Lundon I (Saturation Isotherm Binding Analysis) computer program (Lundon Software, Cleveland, Ohio) or GraphPad Prism software. Both programs utilize nonlinear least-squares regression. Binding isotherms and Scatchard plots were computed directly by the programs. […] Comparisons of Bmax and Kd values were made using analysis of variance and posthoc Newman-Keuls tests.
Competition experiments using 1 or 2 nM [^3H]

[4] = target: T2, PANC-1 nuclear (P1) homogenates (Homo sapiens, UniProt Q9NZT2); experiment: Binding of [^3H]-[Met^5]-enkephalin to PANC-1 nuclear homogenates (saturation and characterization); conditions: for Binding, of the optimal binding at 22° C.: 2 nM ligand
T2 construct: host or cells: PANC-1; nuclear (P1) homogenates, and P2, P3 and S3 fractions in the fractionation study
T2 sequence (Q9NZT2 1-677): T1 sequence (Q9NZT2 1-677)
Description: (§2) Cell culture. PANC-1, Mia PaCa-2, BxPC-3, and Capan-1 cell lines were obtained from the American Type Culture Collection (Manassas, Va.). […] Panc-1 cells between passages 62–74 were used for the characterization studies.
(§3) Preparation of protein fractions. Cell cultures were harvested by scraping of the flasks, and cells were pelleted by centrifugation. The washed pellet was homogenized (Polytron, setting 5, 2×10 sec) in a 1:20 (wt/vol) solution of cold 50 mM Tris-HCl with 0.1 mg/ml bacitracin, 1 mg/ml leupeptin, 6 nM thiorphan, 1 mM EGTA, and 3.5 mM PMSF (pH 7.4) at 4° C.; this buffer is termed Tris/all.
(§4) Receptor binding assays. Homogenates of nuclear protein were diluted with Tris/all to the appropriate protein concentration and incubated at room temperature (22° C.) for 20 min to remove endogenous peptides. Aliquots of protein were resuspended to 0.95 ml and incubated with agitation with radioactive ligand. […] The final volume of the incubation mixture was 1 ml. Isotope incubation was terminated by rapid filtration through Whatman GF-B filters under vacuum pressure with a Brandel Cell Harvester. Filters were rinsed with ice-cold Tris/all buffer, dried at 60° C. for 1 hr and counted by liquid scintillation spectrometry (Beckman LS-2800). […] Duplicate tubes of homogenates were assayed for each concentration utilized. Protein concentrations were determined by the BioRad method with g-globulin as the standard.
as §1

[5] = target: rat OGFr 12-GST fusion protein (cDNA clone #12); experiment: Saturation binding of [^3H]-[Met^5]-enkephalin to purified rat OGFr GST fusion protein; conditions: mean±SE, 6 assays, 22° C., 30 min, read-out: binding affinity (Kd)
rat OGFr 12-GST fusion protein (cDNA clone #12), sequence (as listed by the source): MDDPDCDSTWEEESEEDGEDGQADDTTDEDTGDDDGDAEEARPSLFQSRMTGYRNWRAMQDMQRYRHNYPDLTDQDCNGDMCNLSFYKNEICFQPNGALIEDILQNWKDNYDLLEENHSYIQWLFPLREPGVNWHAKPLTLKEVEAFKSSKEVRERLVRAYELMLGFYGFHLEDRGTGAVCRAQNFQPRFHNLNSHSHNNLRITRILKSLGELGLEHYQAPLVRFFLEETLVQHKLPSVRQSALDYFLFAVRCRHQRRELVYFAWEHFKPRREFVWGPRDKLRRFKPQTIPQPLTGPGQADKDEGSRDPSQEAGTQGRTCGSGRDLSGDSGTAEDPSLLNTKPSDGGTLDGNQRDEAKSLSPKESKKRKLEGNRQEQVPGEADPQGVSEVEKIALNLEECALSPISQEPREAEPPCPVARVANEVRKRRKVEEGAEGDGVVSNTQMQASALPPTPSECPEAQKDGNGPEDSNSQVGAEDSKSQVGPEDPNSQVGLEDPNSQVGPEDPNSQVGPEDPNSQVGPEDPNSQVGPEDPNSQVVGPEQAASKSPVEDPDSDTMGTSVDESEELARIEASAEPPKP
Description: Fusion proteins (80–120 ng/tube) were incubated for 30 min with shaking at 22° C. […] Binding was terminated by filtering homogenates through Whatman GF/B filters. Saturation isotherms were plotted using GraphPad Prism software (GraphPad Software Inc., San Diego, Calif.).

[6] = target: nuclear-enriched fraction of human placenta; experiment: Binding of radiolabeled [Met^5]-enkephalin to human placenta; conditions: one-site model, read-out: binding affinity (Kd)
From the text: A one-site model of binding was noted.

[7] = target: PANC-1 subcellular fractions (P1, P2, P3, S3) (Homo sapiens, UniProt Q9NZT2)
Description: For subcellular fractionation studies, the supernatant of P1 was centrifuged at 39,000× g for 30 min to obtain a plasma membrane pellet (P2). The P2 supernatant was centrifuged overnight (100,000× g), resulting in a microsomal pellet (P3) and soluble supernatant (S3). All fractions were inspected for purity by phase-contrast microscopy.
as §4
Sucrose gradient centrifugation was performed to separate the nuclear (P1), membrane (P2), microsomal (P3), and soluble (S3) fractions (Table II).

BxPC-3 nuclear fraction = BxPC-3 nuclear fraction (Homo sapiens, UniProt Q9NZT2); conditions: BxPC-3, log phase
Description: as §2, §3, §4

Capan-1 nuclear fraction = Capan-1 nuclear fraction (Homo sapiens, UniProt Q9NZT2); conditions: Capan-1, log phase
Description: as §2, §3, §4

[8] = target: MIA PaCA-2 nuclear fraction (Homo sapiens, UniProt Q9NZT2); conditions: MIA PaCA-2, log phase
Description: as §2, §3, §4

[9] = target: Xenografts of Capan-1 growing in nude mice (Homo sapiens, UniProt Q9NZT2); conditions: Capan-1 xenograft, harvested 40 days after inoculation
Description: as §4

[10] = target: human pancreatic cancer tissue (Homo sapiens, UniProt Q9NZT2)
Description: as §4
Receptor binding assays were performed as stated above.

[11] = target: SCCHN enriched nuclear preparations (Homo sapiens, UniProt Q9NZT2)
From the text: (§5) Human tissue samples were representative of a variety of squamous cell carcinomas, including specimens from the oral cavity-larynx, and regional metastases. Normal mucosal specimens were obtained during uvu-lopalatopharyngoplasty.

[12] = target: normal mucosa enriched nuclear preparations (Homo sapiens, UniProt Q9NZT2); conditions: normal epithelium
From the text: as §5

normal human pancreas = normal human pancreas (Homo sapiens, UniProt Q9NZT2); conditions: 3 normal specimens
Description: Normal tissues (as determined from histological assessment) were obtained from two females and a person. […] Samples were collected and frozen in liquid nitrogen within 1 hr of surgery. Receptor binding assays were performed as stated above.

[13] = optimal conditions, P1 fraction

5′-GACTCAGGGACTTAGCTTCATCC-3′ (DNA, all phosphorothioate, methylation of C not given here) [antisense S-ODN (SEQ ID NO: 15)]
elevation of cell number from control cultures [1]: 294%

5′-GGTCGTCCATGCTCGGCTAGAAT-3′ (DNA, all phosphorothioate, methylation of C not given here) [antisense S-ODN (SEQ ID NO: 17)]
elevation of cell number from control cultures ([2]; 48 hr of exposure): 60%

C[C@@H](NC(=O)[C@@H](N)Cc1ccc(O)cc1)C(=O)NCC(=O)N(C)[C@@H](Cc1ccccc1)C(=O)NCCO [DAMGO, [D-Ala^2, N-Me-Phe^4, Gly^5-ol]-enkephalin]
competition for [^3H][Met^5]-enkephalin binding [3]: little or no competition

CC[C@]12CCN(CC3CC3)[C@H](C(=O)c3ccc(O)cc31)[C@@H]2C [EKC, ethylketocyclazocine]
competition for [^3H][Met^5]-enkephalin binding [3]: little or no competition

Nc1nc2c(ncn2[C@@H]2O[C@H](COP(=O)(O)OP(=O)(O)NP(=O)(O)O)[C@@H](O)[C@H]2O)c(=O)[nH]1 [GppNHp, guanylylimidodiphosphate]
effect on binding of [^3H]-[Met^5]-enkephalin ([4]; 50, 100, or 200 μM): not markedly altered

O=C1CC[C@@]2(O)[C@H]3Cc4ccc(O)c5c4[C@@]2(CCN3CC2CC2)[C@H]1O5 [NTX, naltrexone]
elevation of cell number from control cultures [1]: 223%
growth relative to control cultures ([2]; 48 hr): increased cell growth from control values

DPDPE [[D-Pen^2, Pen^5]-enkephalin]
competition for [^3H][Met^5]-enkephalin binding [3]: little or no competition

Dynorphin A1-8 (YGGFLRRI) [κ receptor ligand]
competition for [^3H][Met^5]-enkephalin binding [3]: little or no competition

[Met^5]-enkephalin
ability to displace [^3H][Met^5]enkephalin relative to the next ranking compound [3]: 100 fold

[^3H]-[Met^5]-enkephalin
Kd [5]: 2.8 ± 1.1 nM
Kd [6]: 12.3 ± 3.9 nM
time to reach binding equilibrium ([4]; 22° C.): 60 to 75 min
Bmax ([4]; PANC-1, Table IV, at least 3 independent assays): 28.9 ± 6.2 fmol/mg
Bmax ([4]; PANC-1 Confluent, 5 days in culture): 7.8 ± 0.0 fmol/mg protein
Bmax ([4]; PANC-1 Log phase, 3 days in culture): 20.7 ± 1.2 fmol/mg protein
Bmax ([4]; PANC-1 Post-confluent, 7–8 days in culture): 35.6 ± 0.3 fmol/mg protein
effect of length of time in culture on affinity ([4]; PANC-1 log phase, confluent, post-confluent): no effect
reduction of binding capacity in contrast to post-confluent cells ([4]; confluent cultures): 78%
Binding, of the optimal binding at 22° C. ([4]; incubation at 0° C.): 12%
Binding, of the optimal binding at 22° C. ([4]; incubation at 37° C.): 21%
reduction of binding capacity in contrast to post-confluent cells ([4]; log-phase cultures): 42%
Nonspecific binding, of the total binding [4, 13]: ~52%
maximal binding capacity (Bmax) [4, 13]: 36.4±4.1 fmol/mg protein
Bmax ([7]; P1 fraction, Nuclear): 21.8±4.8 fmol/mg protein
specific and saturable binding ([7]; fractions enriched in P2, P3, or S3): No specific and saturable binding
Bmax (BxPC-3 nuclear fraction): 25.5 ± 9.7 fmol/mg
Bmax (Capan-1 nuclear fraction): 22.7 ± 9.5 fmol/mg
Bmax [8]: 11.9 ± 1.5 fmol/mg
Bmax [9]: 4.2±1.1 fmol/mg protein
binding recorded ([10]; 3 further specimens): non-specific and non-saturable binding
Bmax ([10]; specimens from 3 patients): 6.6±1.2 fmol/mg protein
Binding capacity (Bmax) ([11]; neoplastic specimens): 13.6±1.9 fmol/mg protein
Bmax of neoplastic specimens less than normal epithelium ([11]; p<0.01): 6 fold
Binding capacity (Bmax) [12]: 80.8±32.8 fmol/mg protein
Bmax (normal human pancreas): 46.7±27.8 fmol/mg protein

β-endorphin
IC50/Kd ([3]; competition with [^3H]-[Met^5]-enkephalin, at least 2 independent assays): >10^−4
